{
  "source": "patent US8017828B2",
  "about": "“Utilization of rare sugars in plant or microorganism” (Shikoku Research Institute Incorporated, priority 2004, dated 2011)",
  "key": {"Salsola komarovii": {"system": "Salsola komarovii", "experiment": "Seed germination, short-time and continuous treatment (Experiment 2)", "type": "in vivo", "conditions": "for germination rate: immersed in 1% solution for 24 hours, in the end, DW 28%", "experimental": "In order to clarify an effect of a short-time treatment, 50 seeds of Salsola komarovii, tomato (Home Momotaro) and sunny lettuce (Red Wave), and 20 seeds of morning glory (Tairin Zaki Kongo) were immersed in any of deionized water, 1% D-psicose, 1% D-allose and 1% L-galactose for 24 hours (25° C., dark), respectively, then, they were lightly washed with deionized water. Then, the seeds were sown in a dish with a diameter of 9 cm having a filter paper placed therein, and germinated under the same condition by poring 5 to 10 ml of deionized water therein. Further, for the comparison, a continuous treatment with 1% D-psicose was carried out in accordance with the same procedure."}, "[1]": {"system": "Aspergillus niger, Cladosporium cladosporioides and Penicillium chrysogenum", "experiment": "Mycelial elongation of filamentous fungi on agar with rare sugar", "type": "cell-based", "conditions": "0.05% (w/v) in agar medium, 25° C., 4 days", "experimental": "By using as targets, Aspergillus niger, Cladosporium cladosporioides and Penicillium chrysogenum, which are typical filamentous fungi and generally seen in a living environment, an effect of a rare sugar on mycelial elongation was examined.\nAs the test fungal strains, NBRC 4066 strain, NBRC 4459 strain and NBRC 4626 strain were used.\nEach test fungal strain was cultured on a potato dextrose agar medium at 25° C. for 7 days, and one in which the mycelium extended over the surface of the dish was pushed out along with the agar medium in such a manner that the agar medium was in a disc form with a diameter of 1.1 cm, which was placed at the center of a dish filled with an agar medium (1% Bacto agar) supplemented with any of a variety of rare sugars (allitol, D-altrose, L-mannose, L-galactose, D-tagatose, D-sorbose, D-psicose, D-allose, D-glucose and D-fructose) at 0.05% (w/v) and cultured at 25° C. for 4 days. After the cultivation, the length of the mycelium extending on the surface of the culture medium was measured. Two culture media were prepared for each test plot, and the mycelial length represents the average thereof."}, "[2]": {"system": "stress/hormone response genes", "type": "in vivo, Lotus japonicus", "conditions": "for activation of gene group that responds to pathogenic bacteria and environmental stresses: 5 mM in medium, first one week", "experimental": "A pattern of induction of a gene in the case where D-psicose was added to a medium for Lotus japonicus was examined by an experiment using a cDNA array.\nLotus japonicus was germinated from a seed and cultivated in an L&B medium (hydroponic culture medium). When the seed was germinated, Mesorhizobium loti was also inoculated. This condition was applied to both a control plot and a plot of D-psicose addition. With regard to the array, a microarray on which 14,000 clones were immobilized by using a Lotus japonicus cDNA array was used. After test plants were germinated, they were cultivated with an L&B medium supplemented with D-psicose or without addition for 1 week in a growth cabinet (22° C., 30,000 Lux). After total RNA was extracted from the plant body, it was labeled with ^33P in the process where it was converted to cDNA, and then hybridization was carried out. Reading was carried out using STORM 850 and analysis was carried out with Array Vision."}, "[3]": {"system": "cherry tomato plant “mini carol”", "experiment": "Hydroponic growth of cherry tomato with 0.05 or 0.5 mM sugar, 10 days", "type": "in vivo", "experimental": "Subsequently, a cherry tomato plant “mini carol” was transplanted for permanent planting to a hydroponic apparatus, and a total of 7 treated plots in which a plot without addition (control plot) was added to 6 treated plots with the use of a nutrient solution supplemented with 0.05 mM or 0.5 mM D-psicose, D-fructose or mannitol were prepared. A survey was carried out with regard to the growth at 10 days after the permanent planting. […] The stem diameter was the smallest in the case of 0.5 mM D-psicose. The number of leaves was the smallest in the case of 0.5 mM D-psicose and 0.5 mM mannitol. The root length was the smallest in the case of 0.5 mM psicose."}, "[4]": {"system": "strawberry plant (variety: “smile ruby”)", "experiment": "Growth of strawberry seedlings in tissue culture medium with sugar", "type": "in vivo", "conditions": "for Underground part weight / Number of lateral buds / Aerial part weight / Root length: 0.1% (w/v) in medium; for Underground part weight: without addition 0.5; for Number of lateral buds: without addition 0.6; for Aerial part weight: without addition 1.8; for Root length: without addition 8.7; for Plant length: 0.1% (w/v) in ½ strength MS medium, without addition 3.0", "experimental": "Seedlings of a strawberry plant (variety: “smile ruby”) obtained by meristem culture under sterile conditions were used in an experiment.\nAs for the strawberry, by using ½ strength MS medium supplemented with 0.1% (w/v) D-psicose or D-glucose, the seedling plants were aseptically transplanted on Oct. 14, 2003, and then, cultivation was carried out in a culture chamber at 25° C. and 5,000 Lux (12-hour day length). Then, on Jan. 20, 2004, a survey was carried out with regard to the growth conditions of aerial part and underground part, the number of lateral buds and the like."}, "[5]": {"system": "strawberry plant (variety: “smile ruby”)", "experiment": "Foliar spraying of sugar on potted strawberry, fruit harvest", "type": "in vivo", "conditions": "0.5% (w/v) sprayed three times weekly", "experimental": "A strawberry plant (variety: “smile ruby”) was used in an experiment. The strawberry plants were planted in pots and from Feb. 13, 2004, while the cultivation was carried out in a glass house, water or a 0.5% (w/v) sugar solution was sprayed onto the whole plant on a three times weekly basis. As for the types of sugars, D-glucose and D-psicose were used and two pots were cultivated for each test plot. While the cultivation was continued, the number of fruits, the weight of fruits, the sugar content of fruits were measured with regard to the fruits that could be harvested by Mar. 25, 2004."}},
  "data": [
    {"smiles": "O=C[C@H](O)[C@H](O)[C@H](O)[C@H](O)CO", "note": "[D-allose]", "values": [
      {"measurement": "germination rate", "setting": "Salsola komarovii", "value": 16, "unit": "%"},
      {"measurement": "effect on mycelial elongation", "setting": "[1]", "value": "have an effect of inhibiting mycelial elongation"}
    ]},
    {"smiles": "O=C(CO)[C@@H](O)[C@H](O)[C@H](O)CO", "note": "[D-fructose, reference compound]", "values": [
      {"measurement": "activation of gene group that responds to pathogenic bacteria and environmental stresses", "setting": "[2]", "value": "not observed"},
      {"measurement": "stem length, rank among 7 treated plots", "setting": "[3]; 0.5 mM", "value": "the longest"}
    ]},
    {"smiles": "O=C[C@H](O)[C@@H](O)[C@H](O)[C@H](O)CO", "note": "[D-glucose, reference compound]", "values": [
      {"measurement": "Underground part weight", "setting": "[4]", "value": 1.2, "unit": "g"},
      {"measurement": "Number of lateral buds", "setting": "[4]", "value": 1.0},
      {"measurement": "Aerial part weight", "setting": "[4]", "value": 3.0, "unit": "g"},
      {"measurement": "Root length", "setting": "[4]", "value": 8.7, "unit": "cm"},
      {"measurement": "Plant length", "setting": "[4]", "value": 4.3, "unit": "cm"}
    ]},
    {"smiles": "O=C(CO)[C@H](O)[C@H](O)[C@H](O)CO", "note": "[D-psicose]", "values": [
      {"measurement": "activation of gene group that responds to pathogenic bacteria and environmental stresses", "setting": "[2]", "value": "activated"},
      {"measurement": "expression of a gene group regulated by plant hormones such as auxin", "setting": "[2]; about 0.1 mM in medium", "value": "an increase or a decrease in the expression"},
      {"measurement": "Expression ratio (D-psicose/water): auxin response factor 6 (ARF6)", "setting": "[2]; psicose: 0.1 mM, 1 week", "value": 2.5},
      {"measurement": "Expression ratio (D-psicose/water): auxin-binding protein T85 precursor (ABP)", "setting": "[2]; psicose: 0.1 mM, 1 week", "value": 2.4},
      {"measurement": "Expression ratio (D-psicose/water): chitinase", "setting": "[2]; psicose: 0.1 mM, 1 week", "value": 2.2},
      {"measurement": "Expression ratio (D-psicose/water): chitinase (EC 3.2.1.14) class II", "setting": "[2]; psicose: 0.1 mM, 1 week", "value": 2.2},
      {"measurement": "Expression ratio (D-psicose/water): glycine-rich RNA-binding, abscisic acid-inducible protein", "setting": "[2]; psicose: 0.1 mM, 1 week", "value": 2.5},
      {"measurement": "Expression ratio (D-psicose/water): metal stress-regulated protein SR7", "setting": "[2]; psicose: 0.1 mM, 1 week", "value": 2.4},
      {"measurement": "Expression ratio (D-psicose/water): pathogen-inducible alpha-dioxygenase", "setting": "[2]; psicose: 0.1 mM, 1 week", "value": 2.4},
      {"measurement": "Expression ratio (D-psicose/water): putative WD-40 repeat protein", "setting": "[2]; psicose: 0.1 mM, 1 week", "value": 2.2},
      {"measurement": "Expression ratio (D-psicose/water): turgor-responsive protein 26G", "setting": "[2]; psicose: 0.1 mM, 1 week", "value": 2.3},
      {"measurement": "Expression ratio (D-psicose/water): ACC oxidase", "setting": "[2]; psicose: 5 mM, 1 week", "value": 5.1},
      {"measurement": "Expression ratio (D-psicose/water): PDR5-like ABC transporter", "setting": "[2]; psicose: 5 mM, 1 week", "value": 10.8},
      {"measurement": "Expression ratio (D-psicose/water): PR-10-1 protein", "setting": "[2]; psicose: 5 mM, 1 week", "value": 5.5},
      {"measurement": "Expression ratio (D-psicose/water): auxin response factor like protein", "setting": "[2]; psicose: 5 mM, 1 week", "value": 5.6},
      {"measurement": "Expression ratio (D-psicose/water): chalcone synthase", "setting": "[2]; psicose: 5 mM, 1 week", "value": 5.4},
      {"measurement": "Expression ratio (D-psicose/water): class I chitinase", "setting": "[2]; psicose: 5 mM, 1 week", "value": 13.2},
      {"measurement": "Underground part weight", "setting": "[4]", "value": 1.9, "unit": "g"},
      {"measurement": "Number of lateral buds", "setting": "[4]", "value": 1.3},
      {"measurement": "Aerial part weight", "setting": "[4]", "value": 3.1, "unit": "g"},
      {"measurement": "Root length", "setting": "[4]", "value": 7.2, "unit": "cm"},
      {"measurement": "Plant length", "setting": "[4]", "value": 4.5, "unit": "cm"},
      {"measurement": "average weight of fruits", "setting": "[5]; increased from 13.5 g", "value": 16.6, "unit": "g"},
      {"measurement": "number of fruits that could be harvested during the cultivation period", "setting": "[5]; increased from 25", "value": 38},
      {"measurement": "total weight of fruits that could be harvested", "setting": "[5]; increased from 337.8 g", "value": 630.3, "unit": "g"},
      {"measurement": "germination", "setting": "Salsola komarovii; continuous treatment with 1%", "value": "promoted"},
      {"measurement": "germination rate", "setting": "Salsola komarovii", "value": 28, "unit": "%"},
      {"measurement": "stem length, rank among 7 treated plots", "setting": "[3]; 0.05 mM", "value": "the second longest"},
      {"measurement": "fresh and dry aerial part weights, rank among 7 treated plots", "setting": "[3]; 0.5 mM", "value": "the smallest"},
      {"measurement": "number of leaves, rank among 7 treated plots", "setting": "[3]; 0.5 mM", "value": "the smallest"},
      {"measurement": "root length, rank among 7 treated plots", "setting": "[3]; 0.5 mM", "value": "the smallest"},
      {"measurement": "stem diameter, rank among 7 treated plots", "setting": "[3]; 0.5 mM", "value": "the smallest"},
      {"measurement": "stem length, rank among 7 treated plots", "setting": "[3]; 0.5 mM", "value": "the shortest"},
      {"measurement": "effect on mycelial elongation", "setting": "[1]", "value": "have an effect of inhibiting mycelial elongation"}
    ]}
  ]
}
